Holding throughout (assay type): cell-based
One assay concerns LNCaP tumour cell line. Description: Dose per cell at LD50, 7500 cell six day assay. Particulars: 7500 cells, dose per cell limiting. The source says:
(§1) Tumour cell line LNCaP was used at 7500 cells in a six day assay format while 786-O was used in a 650 cell, six day format where dose per cell is not a limiting factor determining LD50 as well as in 5000 cell, three day format where dose per cell does limit LD50.

A further assay has as its system A2058 tumour cell line. Description: Dose per cell at LD50, 5000 cell six day assay. Particulars: A2058, 5000 cells, dose per cell limiting. The source says:
(§2) Tumour cell lines A2058, NO36 and LS174T and the normal adult dermal fibroblast line NHDF-Ad were used in 5000 cell, six day assays to compare dose per cell at LD50 values for BEC (1:1 solamargine:solasonine), solamargine, solasonine and an equimolar mixture of solamargine and solasonine. Data from the fibroblast cell line NHRE in a 2500 cell 3 day assay was also obtained.

A further assay concerns LS174T tumour cell line. Briefly: Dose per cell at LD50, 5000 cell six day assay. Particulars: 5000 cells, dose per cell limiting.
From the text: as §2

The subject of assay [1] is NHDF-Ad normal adult dermal fibroblast line. Description: Dose per cell at LD50, 5000 cell six day assay. To be noted: NHDF-Ad normal cells, 5000 cells, dose per cell limiting.
From the text: as §2

The test system of assay [2] is NO36 tumour cell line. Description: Dose per cell at LD50, 5000 cell six day assay. Particulars: NO36, 5000 cells, dose per cell limiting.
From the text: as §2

Assay [3] relates to 786-O tumour cell line. Description: Dose per cell at LD50, 5000 cell three day format (dose per cell limiting). To be noted: 5000 cells.
From the text: as §1

The subject of assay [4] is NHRE fibroblast cell line. Briefly: Dose per cell at LD50, 2500 cell 3 day assay. To be noted: NHRE normal cells, 2500 cells, dose per cell limiting.
From the text: as §2

Assay [5] concerns 786-O tumour cell line. Briefly: Dose per cell at LD50, 650 cell six day format (dose per cell not limiting). To be noted: 650 cells.
From the text: as §1

Assay [6] deals with 786-O tumour cell line. Briefly: Effect of solamargine:solasonine ratio on cytotoxicity, MTT cell proliferation assay. Particulars: 3 day assay, 5000 cells. As for the experimental part: (§3) Tumour cell lines 786-O and NO36 and normal fibroblasts NHDF-Ad were used in 5000 cell assays, for three, six and six day assays, respectively, to study the effect of solamargine:solasonine ratio on cytotoxicity.
(§4) Solutions of 4 mg/mL solamargine and 4 mg/mL solasonine in 3% acetic acid were mixed to provide the various ratios. These mixtures were diluted in the culture medium appropriate to the cell line used to concentrations ranging from 0.32 to 40 ug/mL. Fifty uL aliquots were added to tissue culture wells seeded with 5000 cells in 150 uL culture medium 24 hours previously.
(§5) Cell survival was assessed using the MTT cell proliferation assay following four days growth after application of the alkaloids. The formazan absorbance of alkaloid treated wells relative to wells treated with an equivalently dilute acetic acid solution expressed as a percentage has been taken as percentage cell survival.
Background: Formazan colour is commonly taken as a measure of viable cells.

Assay [7] relates to NHDF-Ad normal fibroblasts. Described as above. Particulars: 6 day assay, 5000 cells. The method, then:
as §3, §4, §5

Assay [8] relates to NO36 tumour cell line. Described as above. To be noted: NO36, 6 day assay, 5000 cells. The method, then: as §3, §4, §5

With `C[C@@H]1CC[C@@]2(NC1)O[C@H]1C[C@H]3[C@@H]4CC=C5C[C@@H](O[C@@H]6O[C@H](CO)[C@@H](O[C@@H]7O[C@@H](C)[C@H](O)[C@@H](O)[C@H]7O)[C@H](O)[C@H]6O[C@@H]6O[C@@H](C)[C@H](O)[C@@H](O)[C@H]6O)CC[C@]5(C)[C@H]4CC[C@]3(C)[C@H]1[C@@H]2C` [Solamargine, solamargine], the “Dose per cell at LD50, pg/cell of total alkaloid” value (“Dose per cell at LD50, pg/cell” below) with LNCaP tumour cell line came out at 121.9 pg/cell; in the assay on A2058 tumour cell line, 199.0 pg/cell; in the assay with LS174T tumour cell line, 162.8 pg/cell; in assay [1], 209.2 pg/cell; in the assay with NO36 tumour cell line [2], 154.8 pg/cell; in the assay with 786-O tumour cell line [3], 208.0 pg/cell. Moreover, the “Dose per cell at LD50, pg/cell” value is 227.9 pg/cell in assay [4] and 1394.0 pg/cell in the assay with 786-O tumour cell line [5]. Moreover, the “Dose per cell at LD50,” value in the assay on 786-O tumour cell line [6] is 304 pg; in assay [7] it was 112 pg; in the assay on NO36 tumour cell line [8] it was 209 pg.
As for `C[C@@H]1CC[C@@]2(NC1)O[C@H]1C[C@H]3[C@@H]4CC=C5C[C@@H](O[C@@H]6O[C@H](CO)[C@H](O)[C@H](O[C@@H]7O[C@H](CO)[C@@H](O)[C@H](O)[C@H]7O)[C@H]6O[C@@H]6O[C@@H](C)[C@H](O)[C@@H](O)[C@H]6O)CC[C@]5(C)[C@H]4CC[C@]3(C)[C@H]1[C@@H]2C` [Solasonine, solasonine], the “Dose per cell at LD50, pg/cell” value in the assay on LNCaP tumour cell line is on record as 432.5 pg/cell; in the assay on A2058 tumour cell line it was 685 pg/cell; in the assay with LS174T tumour cell line, over 400 pg/cell; in assay [1], 587.6 pg/cell; in the assay on NO36 tumour cell line [2], 613.2 pg/cell; in the assay with 786-O tumour cell line [3], over 400 pg/cell. The “Dose per cell at LD50, pg/cell” value in assay [4] was determined as 1657.7 pg/cell; in the assay with 786-O tumour cell line [5], 5606.0 pg/cell. Moreover, the “Dose per cell at LD50,” value with 786-O tumour cell line [6] is 500 pg; in [7], 400 pg; in the assay with NO36 tumour cell line [8], 613 pg.

Source of the values: patent US20040053857A1, “Glycoalkaloid compositions and various uses thereof” (priority 2002, published 2004).
